Measurements as given in patent publication US8183247B2, “Boron compounds useful in BNCT” (Hammercap AB, priority 2005, dated 2012).

Legend:
[1] = system: human sarcoma cell line 4SS; assay: BF uptake by different tumor cells: 4SS; assay type: cell-based; conditions: 6 hours incubation
Description: (§1) Four different tumour cell lines of human origin, including human glioma cell line U343mga, human hepatocarcinoma cell line Hep3B, human breast adenocarcinoma cell line MCF7 and human sarcoma cell line 4SS, were used for in vitro testing of the purified material from Example 3 (hereinafter designated as BF). Cells were plated on non-coated tissue culture plastics and cultured at 37° C. in incubators with humidified air, equilibrated with 5% CO2. They were grown in recommended tissue culture medium, supplemented with 10% FCS and PEST (penicillin 100 IU/ml and streptomycin […]). For passage of cells, cells were trypsinized with trypsin-EDTA (0.25% trypsin, 0.02% EDTA in phosphate buffered saline (PBS) without calcium and magnesium).
(§2) Cell samples were taken for total protein analysis according to a standard Bradford procedure. Cell pellets were processed for boron analysis by Direct Current Plasma-Atomic Emission Spectroscopy (DCP-AES). Samples (50-130 mg) were digested at 60° C. with sulfuric acid/nitric acid (1/1). Triton X-100 and water added to give a concentrations of 50 mg tissue/ml, 15% total acid v/v and 5% Triton X-100 v/v. The boron concentrations were based on a known reference sample. […]

[2] = system: tumour cell lines of human origin; assay: In vitro studies in tumour cell lines: signs of toxicity; assay type: cell-based; conditions: Examples 4-6
Description: as §1

[3] = system: human breast adenocarcinoma cell line MCF7; assay: BF uptake by different tumor cells: MCF7; assay type: cell-based; conditions: 6 hours incubation
Description: as §1, §2

[4] = system: human hepatocarcinoma cell line Hep3B; assay: BF uptake by different tumor cells: Hep3B; assay type: cell-based; conditions: 6 hours incubation
Description: as §1, §2

[5] = system: U343mga cells; assay: Intracellular retention of boron after withdrawal of boron containing medium; assay type: cell-based, human; conditions: for Boron content in U343mga cells, 0 hour after withdrawal of boron containing medium / Boron content in U343mga cells, 2 hours after withdrawal of boron containing medium / Boron content in U343mga cells, 7 hours after withdrawal of boron containing medium: 18 hours incubation, 5×10^−4 M boron
Description: as §1
(§3) Cell samples were taken for total protein analysis according to a standard Bradford procedure. Cell pellets were processed for boron analysis by Direct Current Plasma-Atomic Emission Spectroscopy (DCP-AES). Samples (50-130 mg) were digested at 60° C. with sulfuric acid/nitric acid (1/1). Triton X-100 and water added to give a concentrations of 50 mg tissue/ml, 15% total acid v/v and 5% Triton X-100 v/v. The boron concentrations were based on a known reference sample.
U343 mga cells, were plated on Petri dishes at 75% cell density and incubated with one of 1-4-dihydroxyboryl-phenylalanine (BPA) or BF in tissue culture medium for 18 hours. Both boronated compounds were added to the tissue culture medium at equimolar concentrations with respect to the boron content (5×10^−4 M boron). Incubations were stopped by replacing the boron-containing medium with culture medium without boron. Cell samples were harvested at time points 0, 2 and 7 hours where the 0 time point represents immediate after 18 hour incubation of boronated compound.
Cells were washed with cold PBS and harvested by scraping them off the plastic dish using a rubber policeman, collected in cold PBS and pelleted by centrifugation. Cell pellets were analysed for total protein and boron content as described.

[6] = system: human glioma cell line U343mga; assay: Cell uptake of boronated compounds (boron content by DCP-AES); assay type: cell-based; conditions: U343mga cells, 6 hours incubation, 5×10^−4 M boron; for Boron content expressed as a function of total cell protein, Trial 1: trial 1: 7.2 μg boron/ml culture medium; for Boron content expressed as a function of total cell protein, Trial 2: trial 2: 7.7 μg boron/ml culture medium
Description: as §1
U343 mga cells were plated on Petri dishes at 75% cell density and incubated with one of boric acid (BA), vitamin B12 conjugated boron (BB), 1-4-dihydroxyboryl-phenylalanine (BPA) or BF dissolved in tissue culture medium for 6 hours. All four boronated compounds were added to and dissolved in the tissue culture medium at equimolar concentrations with respect to the boron content (5×10^−4 M boron). Incubations were stopped by removing the boron-containing tissue culture medium and by adding cold PBS buffer for washing excess of medium from cells. Cells were immediately harvested by scraping them off the plastic dish using a rubber policeman. They were collected in cold PBS and pelleted by centrifugation.
as §3

[7] = system: U343mga; assay: BF uptake by different tumor cells: U343mga; assay type: cell-based, human; conditions: 6 hours incubation
Description: as §1, §2

Row | Compound | Boron content expressed as a function of total cell protein, Low cell density ([1]; 40-50% (low) cell density) [μg boron/g cell protein] | Boron content expressed as a function of total cell protein, High cell density ([1]; 90-100% (high) cell density) [μg boron/g cell protein] | Signs of toxicity in in vitro studies [2] | Boron content expressed as a function of total cell protein, Low cell density ([3]; MCF7, 40-50% (low) cell density) [μg boron/g cell protein] | Boron content expressed as a function of total cell protein, High cell density ([3]; MCF7, 90-100% (high) cell density) [μg boron/g cell protein] | Boron content expressed as a function of total cell protein, Low cell density ([4]; 40-50% (low) cell density) [μg boron/g cell protein] | Boron content expressed as a function of total cell protein, High cell density ([4]; 90-100% (high) cell density) [μg boron/g cell protein] | Share of the total uptake retained in tumour cells ([5]; 7 hours after total depletion of BF in the culture medium) [%] | Boron content in U343mga cells, 0 hour after withdrawal of boron containing medium [5] [μg boron/g cell pellet] | Boron content in U343mga cells, 2 hours after withdrawal of boron containing medium [5] [μg boron/g cell pellet] | Boron content in U343mga cells, 7 hours after withdrawal of boron containing medium [5] [μg boron/g cell pellet] | Boron content expressed as a function of total cell protein, Trial 1 [6] [μg boron/g cell protein] | Boron content expressed as a function of total cell protein, Trial 2 [6] [μg boron/g cell protein] | Boron content expressed as a function of total cell protein, Low cell density ([7]; 40-50% (low) cell density) [μg boron/g cell protein] | Boron content expressed as a function of total cell protein, High cell density ([7]; 90-100% (high) cell density) [μg boron/g cell protein]
1 | N^2-(4-{[(2-amino-4-oxo-3,4-dihydropteridin-6-yl)methyl]amino}benzoyl)-N-{3-[(1R,9S)-2,3,4,5,6,7,8,10,11,12-decaborabicyclo[7.2.1]dodec-1-yl]propyl}-α-glutamine and N^2-(4-{[(2-amino-4-oxo-3,4-dihydropteridin-6-yl)methyl]amino}benzoyl)-N-[3-(2,3,4,5,6,7,8,10,11,12-decaborabicyclo[7.2.1]dodec-1-yl)propyl]-L-glutamine [BF] | 263 | 367 | without any signs of toxicity | 108 | 169 | 171 | 219 | 40 | 0.79 | 0.59 | 0.3 | 560 | 440 | 108 | 172
2 | OB(O)O [BA, boric acid] |  |  |  |  |  |  |  |  |  |  |  | 8 |  |  | 
3 | N[C@@H](Cc1ccc(B(O)O)cc1)C(=O)O [BPA, 1-4-dihydroxyboryl-phenylalanine, reference compound] |  |  |  |  |  |  |  |  | 0.075 | 0 | 0 | 65 | 38 |  | 
